Source: US20080214606A1, “Methods for the Identification and Use of Compounds Suitable for the Treatment of Drug Resistant Cancer Cells” (The Government of the United States of America as …, priority 2004, published 2008)

What was measured:
ABCC7 = molecular target: T1, ABCC7 (Homo sapiens, UniProt P13569); experiment: Correlation of ABCC7 expression with drug sensitivity across the NCI-60; format: cell-based; conditions: Pearson correlation of ABCC7 expression with sensitivity of the 60 cell lines; 1429 compounds; inverse, p < 0.0001
T1 construct: profiled in 60 diverse cancer cell lines (the NCI-60) using real-time RT-PCR; endogenous in cells; host or cells: NCI-60 human cancer cell lines
Experimental: (§1) Expression levels are measured by real-time quantitative RT-PCR using the LightCycler RNA Amplification SYBR Green kit and a LightCycler machine (Roche Biochemicals, Indianapolis, Ind.). […] When possible, the amplicons are designed to encompass exon-intron boundaries to avoid amplification of genomic DNA. Since the Syber Green assay detects accumulation of double stranded DNA, primers are selected (from a battery consisting of about 200 primers) that amplified a single product of the correct size.
(§2) RT-PCR is carried out on 150 ng total RNA, in the presence of 250 nM specific primers. Following reverse transcription (20 min at 50° C.), the PCR reaction consists of 45 cycles of denaturation (15 sec at 95° C.), annealing (30 sec at 58° C.), and elongation (30 sec at 72° C.). No-template (water) reaction mixtures are prepared as negative controls.
(§3) During PCR amplification, fluorescence emission is measured and recorded in real time by the LightCycler. Crossing point values are calculated, using the LightCycler software package, by the Fit Points analysis method, with baseline fluorescence set at 1. The SyberGreen assay measures accumulation of double-stranded products, and the appearance of primer dimers limits quantitation at high cycle numbers. The specificity of amplified products is verified by melting-curve analysis and agarose gel electrophoresis (not shown). The raw results are expressed as number of cycles to reach the crossing point. If the desired product is not detected, the corresponding value is adjusted to crossing points indicating no expression. To assess the contribution of experimental artifacts, selected cell lines are assessed in replicate.
(§4) The two are combined to form a joint dataset that includes 1429 compounds.
(§5) To determine quantitatively how well the 47 genes cluster the cell lines by their tissues of origin, a statistical method is employed wherein the kappa statistic is used to indicate how well the observed clusters correspond to the nine tissue-of-origin classifications. […] To control the overall false type 1 error rate, both a step-down procedure (Westfall and Young, 1993, Resampling-Based Multiple Testing: Examples and Methods for p-value Adjustment (New York: Wiley)) and a step-up procedure (Reiner et al., 2003, Bioinformatics 19:368-375) were employed to adjust for multiple testing of all 47 genes simultaneously. In the Benjamini-Hochberg procedure the p-values are computed in the standard way by permutation, assuming that all distributions are exchangeable: the number of values in the permuted data with correlations over a threshold, divided by the number of compounds and by the number of permutations. In this analysis, the False Discovery Rate (q-value) at which each compound would be declared was calculated using the step-up procedure for positively correlated test statistics (again true because all correlations being compared are computed against the same ABC gene): in this procedure the first q-value for the largest correlation is the Bonferroni-corrected p-value for that gene; then further q-values are calculated as qj=max(pj*1429/j, qj-1). This procedure limits the expected proportion of false positives in the list 1, . . . , j to at most qj.

ABCC3 = molecular target: T2, ABCC3 (Homo sapiens, UniProt O15438); experiment: Correlation of ABCC3 expression with drug sensitivity across the NCI-60; format: cell-based; conditions: Pearson correlation of ABCC3 expression with sensitivity of the 60 cell lines; 1429 compounds; inverse, p < 0.0001
T2 construct: profiled in 60 diverse cancer cell lines (the NCI-60) using real-time RT-PCR; endogenous in cells; host or cells: NCI-60 human cancer cell lines
Experimental: as §1, §2, §3, §4, §5

ABCA3 = molecular target: T3, ABCA3 (Homo sapiens, UniProt Q99758); experiment: Correlation of ABCA3 expression with drug sensitivity across the NCI-60; format: cell-based; conditions: Pearson correlation of ABCA3 expression with sensitivity of the 60 cell lines; 1429 compounds; inverse, p < 0.0001
T3 construct: profiled in 60 diverse cancer cell lines (the NCI-60) using real-time RT-PCR; endogenous in cells; host or cells: NCI-60 human cancer cell lines
Experimental: as §1, §2, §3, §4, §5

ABCB5 = molecular target: T4, ABCB5 (Homo sapiens, UniProt Q2M3G0); experiment: Correlation of ABCB5 expression with drug sensitivity across the NCI-60; format: cell-based; conditions: Pearson correlation of ABCB5 expression with sensitivity of the 60 cell lines; 1429 compounds; inverse, p < 0.0001
T4 construct: profiled in 60 diverse cancer cell lines (the NCI-60) using real-time RT-PCR; endogenous in cells; host or cells: NCI-60 human cancer cell lines
T4 sequence (Q2M3G0 1-1257): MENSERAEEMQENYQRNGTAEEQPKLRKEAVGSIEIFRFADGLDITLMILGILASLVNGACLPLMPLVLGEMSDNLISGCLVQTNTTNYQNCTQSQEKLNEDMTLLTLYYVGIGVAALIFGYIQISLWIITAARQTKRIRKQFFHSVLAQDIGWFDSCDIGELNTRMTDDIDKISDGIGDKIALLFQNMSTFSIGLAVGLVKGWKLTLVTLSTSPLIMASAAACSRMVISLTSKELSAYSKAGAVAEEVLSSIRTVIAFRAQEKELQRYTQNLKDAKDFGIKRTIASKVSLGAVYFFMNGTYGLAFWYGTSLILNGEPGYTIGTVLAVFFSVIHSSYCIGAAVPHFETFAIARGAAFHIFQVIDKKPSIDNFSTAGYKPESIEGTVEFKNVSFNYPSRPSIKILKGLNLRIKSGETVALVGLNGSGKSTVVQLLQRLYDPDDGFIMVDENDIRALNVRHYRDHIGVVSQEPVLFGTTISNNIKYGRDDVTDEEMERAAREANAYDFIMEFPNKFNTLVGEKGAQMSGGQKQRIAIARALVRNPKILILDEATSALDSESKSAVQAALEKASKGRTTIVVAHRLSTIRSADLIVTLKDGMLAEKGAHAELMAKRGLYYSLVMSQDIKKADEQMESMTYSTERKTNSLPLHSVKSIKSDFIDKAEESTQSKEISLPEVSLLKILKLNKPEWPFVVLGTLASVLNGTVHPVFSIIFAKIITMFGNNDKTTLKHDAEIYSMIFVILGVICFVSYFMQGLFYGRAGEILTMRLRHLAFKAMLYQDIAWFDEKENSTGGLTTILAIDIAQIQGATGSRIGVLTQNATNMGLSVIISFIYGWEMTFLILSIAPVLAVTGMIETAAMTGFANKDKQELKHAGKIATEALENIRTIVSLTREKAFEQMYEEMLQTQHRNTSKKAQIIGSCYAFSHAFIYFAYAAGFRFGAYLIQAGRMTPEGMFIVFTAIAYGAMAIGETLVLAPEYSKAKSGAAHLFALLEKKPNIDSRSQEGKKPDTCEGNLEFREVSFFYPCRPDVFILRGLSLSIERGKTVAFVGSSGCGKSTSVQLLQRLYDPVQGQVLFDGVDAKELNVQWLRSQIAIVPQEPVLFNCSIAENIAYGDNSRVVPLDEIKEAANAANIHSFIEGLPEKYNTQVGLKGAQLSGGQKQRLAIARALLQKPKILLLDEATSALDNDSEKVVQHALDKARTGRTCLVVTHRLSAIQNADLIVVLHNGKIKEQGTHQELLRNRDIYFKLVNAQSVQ
Experimental: as §1, §2, §3, §4
In the Benjamini-Hochberg procedure the p-values are computed in the standard way by permutation, assuming that all distributions are exchangeable: the number of values in the permuted data with correlations over a threshold, divided by the number of compounds and by the number of permutations. In this analysis, the False Discovery Rate (q-value) at which each compound would be declared was calculated using the step-up procedure for positively correlated test statistics (again true because all correlations being compared are computed against the same ABC gene): in this procedure the first q-value for the largest correlation is the Bonferroni-corrected p-value for that gene; then further q-values are calculated as qj=max(pj*1429/j, qj-1). This procedure limits the expected proportion of false positives in the list 1, . . . , j to at most qj.

ABCD1 = molecular target: T5, ABCD1 (Homo sapiens, UniProt P33897); experiment: Correlation of ABCD1 expression with drug sensitivity across the NCI-60; format: cell-based; conditions: Pearson correlation of ABCD1 expression with sensitivity of the 60 cell lines; 1429 compounds; inverse, p < 0.0001
T5 construct: profiled in 60 diverse cancer cell lines (the NCI-60) using real-time RT-PCR; endogenous in cells; host or cells: NCI-60 human cancer cell lines
Experimental: as §1, §2, §3, §4, §5

ABCC2 = molecular target: T6, ABCC2 (Homo sapiens, UniProt Q92887); experiment: Correlation of ABCC2 expression with drug sensitivity across the NCI-60; format: cell-based; conditions: Pearson correlation of ABCC2 expression with sensitivity of the 60 cell lines; 1429 compounds; inverse, p < 0.0001
T6 construct: profiled in 60 diverse cancer cell lines (the NCI-60) using real-time RT-PCR; endogenous in cells; host or cells: NCI-60 human cancer cell lines
Experimental: as §1, §2, §3, §4, §5

ABCB1 = ABCB1 (Homo sapiens, UniProt P08183); experiment: Correlation of ABCB1 expression with drug sensitivity across the NCI-60
How it was run: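 SYBR Green real-time RT-PCR on 150 ng total RNA with 250 nM primers: RT 20 min at 50 °C, then 45 cycles; expression taken as crossing-point cycle number. Correlated with drug sensitivity of 1429 compounds across the cell panel; permutation p-values with step-down and step-up (FDR q-value) multiple-testing correction.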

T2 sequence (O15438 whole entry): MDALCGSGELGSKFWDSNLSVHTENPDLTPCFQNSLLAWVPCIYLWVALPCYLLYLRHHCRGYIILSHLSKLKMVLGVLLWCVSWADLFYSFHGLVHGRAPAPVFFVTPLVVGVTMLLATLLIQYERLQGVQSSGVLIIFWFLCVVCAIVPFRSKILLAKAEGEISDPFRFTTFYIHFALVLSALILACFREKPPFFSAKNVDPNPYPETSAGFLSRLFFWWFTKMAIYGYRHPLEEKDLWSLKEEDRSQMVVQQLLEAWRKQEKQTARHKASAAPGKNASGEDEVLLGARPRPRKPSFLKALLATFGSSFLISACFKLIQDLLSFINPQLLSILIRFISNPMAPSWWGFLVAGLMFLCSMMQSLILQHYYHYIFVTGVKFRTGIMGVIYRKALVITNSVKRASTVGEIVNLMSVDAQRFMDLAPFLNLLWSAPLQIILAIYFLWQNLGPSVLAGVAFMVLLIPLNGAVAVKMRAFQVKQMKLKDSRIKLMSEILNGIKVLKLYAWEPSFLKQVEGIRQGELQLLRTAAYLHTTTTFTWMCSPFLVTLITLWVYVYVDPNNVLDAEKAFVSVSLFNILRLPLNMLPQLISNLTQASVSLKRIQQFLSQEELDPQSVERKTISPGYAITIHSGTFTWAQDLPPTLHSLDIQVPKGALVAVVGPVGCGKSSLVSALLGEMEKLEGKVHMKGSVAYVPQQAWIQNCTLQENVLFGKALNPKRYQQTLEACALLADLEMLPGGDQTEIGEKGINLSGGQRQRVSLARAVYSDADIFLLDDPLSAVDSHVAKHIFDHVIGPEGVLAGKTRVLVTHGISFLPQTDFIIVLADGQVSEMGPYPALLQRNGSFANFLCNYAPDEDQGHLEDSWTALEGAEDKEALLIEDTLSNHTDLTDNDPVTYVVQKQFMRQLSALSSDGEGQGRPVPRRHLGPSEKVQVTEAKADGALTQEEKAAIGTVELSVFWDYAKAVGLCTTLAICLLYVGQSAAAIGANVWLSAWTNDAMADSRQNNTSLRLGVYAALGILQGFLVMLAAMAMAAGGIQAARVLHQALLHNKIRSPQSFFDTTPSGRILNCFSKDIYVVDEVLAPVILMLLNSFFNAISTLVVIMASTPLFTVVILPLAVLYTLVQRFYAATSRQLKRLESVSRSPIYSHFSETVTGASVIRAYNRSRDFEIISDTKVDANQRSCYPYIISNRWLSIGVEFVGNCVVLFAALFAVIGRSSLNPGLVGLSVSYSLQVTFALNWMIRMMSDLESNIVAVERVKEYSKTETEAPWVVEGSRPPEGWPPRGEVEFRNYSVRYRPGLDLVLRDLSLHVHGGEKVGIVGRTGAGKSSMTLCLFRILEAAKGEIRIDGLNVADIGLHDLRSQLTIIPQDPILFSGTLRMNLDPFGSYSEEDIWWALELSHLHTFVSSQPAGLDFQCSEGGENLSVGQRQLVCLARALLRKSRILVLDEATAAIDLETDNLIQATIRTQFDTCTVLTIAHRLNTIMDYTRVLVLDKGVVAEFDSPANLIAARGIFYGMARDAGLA
Sequence of ABCB1 (P08183 whole entry): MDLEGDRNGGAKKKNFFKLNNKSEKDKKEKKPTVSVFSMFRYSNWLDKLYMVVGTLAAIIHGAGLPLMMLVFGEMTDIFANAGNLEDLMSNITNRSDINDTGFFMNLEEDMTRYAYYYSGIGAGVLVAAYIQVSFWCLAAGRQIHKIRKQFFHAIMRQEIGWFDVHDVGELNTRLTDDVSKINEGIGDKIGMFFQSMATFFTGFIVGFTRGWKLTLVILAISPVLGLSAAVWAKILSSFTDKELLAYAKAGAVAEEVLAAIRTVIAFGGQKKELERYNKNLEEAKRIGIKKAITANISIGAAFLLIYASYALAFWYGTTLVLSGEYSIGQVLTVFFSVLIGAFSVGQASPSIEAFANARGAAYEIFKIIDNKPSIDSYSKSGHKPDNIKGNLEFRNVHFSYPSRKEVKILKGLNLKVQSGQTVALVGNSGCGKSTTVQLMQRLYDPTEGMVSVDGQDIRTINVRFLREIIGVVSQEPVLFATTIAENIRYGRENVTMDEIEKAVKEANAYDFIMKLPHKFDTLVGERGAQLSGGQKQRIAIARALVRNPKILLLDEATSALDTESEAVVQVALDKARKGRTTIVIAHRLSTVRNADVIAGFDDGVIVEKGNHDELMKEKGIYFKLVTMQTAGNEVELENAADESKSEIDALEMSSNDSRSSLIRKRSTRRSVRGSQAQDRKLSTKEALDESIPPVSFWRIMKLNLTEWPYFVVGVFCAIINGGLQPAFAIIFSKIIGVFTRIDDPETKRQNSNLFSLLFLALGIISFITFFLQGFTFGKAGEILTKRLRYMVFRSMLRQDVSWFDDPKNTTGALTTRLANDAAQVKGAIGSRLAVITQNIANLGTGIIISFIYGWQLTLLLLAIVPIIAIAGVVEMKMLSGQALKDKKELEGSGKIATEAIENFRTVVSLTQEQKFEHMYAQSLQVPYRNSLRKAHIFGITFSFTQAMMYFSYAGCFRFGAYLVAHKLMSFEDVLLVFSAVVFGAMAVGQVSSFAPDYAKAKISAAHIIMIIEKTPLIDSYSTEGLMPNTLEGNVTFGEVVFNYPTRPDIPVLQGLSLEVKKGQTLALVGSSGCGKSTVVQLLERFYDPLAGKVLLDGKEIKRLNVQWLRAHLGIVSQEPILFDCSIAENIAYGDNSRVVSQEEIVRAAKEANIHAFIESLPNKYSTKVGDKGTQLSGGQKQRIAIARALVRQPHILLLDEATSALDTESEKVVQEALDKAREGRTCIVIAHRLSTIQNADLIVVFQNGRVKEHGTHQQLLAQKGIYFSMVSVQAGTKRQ
T1 sequence (P13569 whole entry): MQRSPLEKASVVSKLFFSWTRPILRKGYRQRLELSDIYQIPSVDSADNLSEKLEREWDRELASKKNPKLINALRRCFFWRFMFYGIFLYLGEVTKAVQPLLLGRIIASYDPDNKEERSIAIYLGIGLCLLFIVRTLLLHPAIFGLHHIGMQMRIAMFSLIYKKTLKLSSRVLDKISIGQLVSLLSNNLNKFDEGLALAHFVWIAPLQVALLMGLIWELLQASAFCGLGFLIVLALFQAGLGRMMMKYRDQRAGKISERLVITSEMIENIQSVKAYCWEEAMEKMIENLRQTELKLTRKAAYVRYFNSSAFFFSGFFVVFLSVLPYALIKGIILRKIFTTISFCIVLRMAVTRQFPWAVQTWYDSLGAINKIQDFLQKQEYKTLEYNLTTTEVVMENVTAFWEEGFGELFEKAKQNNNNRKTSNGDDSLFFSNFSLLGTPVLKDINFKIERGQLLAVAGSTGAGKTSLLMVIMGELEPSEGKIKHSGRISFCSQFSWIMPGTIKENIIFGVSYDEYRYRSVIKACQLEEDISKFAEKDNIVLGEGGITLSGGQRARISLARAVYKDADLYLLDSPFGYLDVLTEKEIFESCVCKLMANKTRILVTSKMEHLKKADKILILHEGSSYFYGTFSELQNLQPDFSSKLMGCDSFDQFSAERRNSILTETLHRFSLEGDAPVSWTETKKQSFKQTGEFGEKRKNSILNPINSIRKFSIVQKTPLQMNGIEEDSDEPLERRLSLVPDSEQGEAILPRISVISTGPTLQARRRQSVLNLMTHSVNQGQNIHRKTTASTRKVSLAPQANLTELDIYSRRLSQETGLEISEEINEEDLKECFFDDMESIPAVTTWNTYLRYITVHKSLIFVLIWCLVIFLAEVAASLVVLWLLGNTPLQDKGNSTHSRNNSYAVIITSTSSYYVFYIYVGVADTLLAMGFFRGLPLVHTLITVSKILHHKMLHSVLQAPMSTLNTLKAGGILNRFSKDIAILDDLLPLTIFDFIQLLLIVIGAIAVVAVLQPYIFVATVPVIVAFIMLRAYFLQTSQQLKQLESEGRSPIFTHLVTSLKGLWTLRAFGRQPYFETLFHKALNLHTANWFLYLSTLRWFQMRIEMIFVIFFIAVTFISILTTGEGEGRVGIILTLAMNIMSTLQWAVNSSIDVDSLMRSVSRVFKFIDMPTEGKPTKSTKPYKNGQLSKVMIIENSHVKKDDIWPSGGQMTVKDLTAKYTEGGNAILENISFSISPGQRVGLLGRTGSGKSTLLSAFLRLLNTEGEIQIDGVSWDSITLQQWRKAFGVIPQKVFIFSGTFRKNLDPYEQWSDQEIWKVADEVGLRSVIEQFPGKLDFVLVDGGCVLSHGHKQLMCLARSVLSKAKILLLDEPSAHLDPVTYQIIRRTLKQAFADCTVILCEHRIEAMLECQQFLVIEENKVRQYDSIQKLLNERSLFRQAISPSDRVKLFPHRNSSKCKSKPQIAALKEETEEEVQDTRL
T5 sequence (P33897 whole entry): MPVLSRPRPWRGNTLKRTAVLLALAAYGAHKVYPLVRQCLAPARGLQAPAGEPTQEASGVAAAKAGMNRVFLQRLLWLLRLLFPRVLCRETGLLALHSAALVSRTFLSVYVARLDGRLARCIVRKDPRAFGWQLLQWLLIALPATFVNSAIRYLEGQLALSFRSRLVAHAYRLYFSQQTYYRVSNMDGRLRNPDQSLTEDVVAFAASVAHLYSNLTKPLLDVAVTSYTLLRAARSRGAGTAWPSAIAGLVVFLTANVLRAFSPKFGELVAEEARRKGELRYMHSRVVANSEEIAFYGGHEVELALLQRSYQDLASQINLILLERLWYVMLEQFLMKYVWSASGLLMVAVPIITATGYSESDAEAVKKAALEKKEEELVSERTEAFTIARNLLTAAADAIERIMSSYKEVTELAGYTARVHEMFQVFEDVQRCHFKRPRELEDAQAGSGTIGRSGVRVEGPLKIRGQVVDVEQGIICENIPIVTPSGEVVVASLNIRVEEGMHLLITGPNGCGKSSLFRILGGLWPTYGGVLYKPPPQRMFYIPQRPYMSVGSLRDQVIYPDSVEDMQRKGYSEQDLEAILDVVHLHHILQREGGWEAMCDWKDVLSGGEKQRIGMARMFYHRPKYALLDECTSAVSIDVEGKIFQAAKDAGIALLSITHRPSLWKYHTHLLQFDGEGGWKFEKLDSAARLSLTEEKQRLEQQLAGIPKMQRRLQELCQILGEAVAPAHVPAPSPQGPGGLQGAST

CC(C)(C)c1nc2c(o1)C(=Nc1ccc(F)cc1)c1ccccc1C2=O [NSC 626030]
Correlation (ABCC7): −0.5025

COc1cc2cc[n+]3c(c2cc1OC)C(=O)c1ccccc1-3 [NSC 627787]
Correlation (ABCC7): −0.5471

Cn1c(=O)nc2n(-c3ccc(Cl)cc3)c3cc(Cl)ccc3nc-2c1=O [NSC 627991]
Correlation (ABCC3): −0.4741

CCN(CC)CC(O)CNc1ccc(NCC2CO2)c2c1C(=O)c1ccccc1C2=O (stereo not drawn) [NSC 639366]
Correlation (ABCC3): −0.5003

O=C(CC(=O)c1ccccc1NC1=Cc2ccccc2C(=O)C1=O)C(=O)NC1=C(Cl)C(=O)c2ccccc2C1=O [NSC 641245]
Correlation (ABCC3): −0.5702

CC(C)(C)NNc1c([N+](=O)[O-])cnn(-c2ccccc2)c1=O [NSC 641820]
Correlation (ABCC3): −0.3991

CC1CSC(=S)N1C(=O)N1C(=S)SCC1C (stereo not drawn) [NSC 654968]
Correlation (ABCC7): −0.5519

CC(=O)O[C@@]12CO[C@@H]1CC(O)[C@@]1(C)C(=O)[C@H](O)C3=C(C)C(O)C[C@@](O)(C(OC(=O)c4ccccc4)C12)C3(C)C (stereo partly drawn) [NSC 656178]
Correlation (ABCA3): −0.4318

O=C1C=C(N2CCN(c3ccccn3)CC2)C(=O)c2c(O)ccc(O)c21 [NSC 658142]
Correlation (ABCC3): −0.4982
Correlation (ABCA3): −0.4017

CC(=O)NC1=CC(=O)c2cc(C)cc(O)c2C1=O [NSC 658450]
Correlation (ABCC3): −0.5526

OCC1OC(c2scc3c(=S)nc[nH]c23)C(O)C1O (stereo not drawn) [NSC 670036]
Correlation (ABCB5): −0.4561

CCOC(=O)/C(C#N)=C/c1ccc2c(c1)CC1(C2)Cc2cc(CC)c(C(C)O)cc2C1 (stereo not drawn) [NSC 670289]
Correlation (ABCC3): −0.3824

COC(=O)CCC(=O)NC1=C(Nc2ccc(OC)cc2)C(=O)c2ccccc2C1=O [NSC 670766]
Correlation (ABCC7): −0.4378

CC(=O)Oc1ccc(C2(c3ccc(F)cc3)OC(=O)c3ccccc32)c(C)c1 (stereo not drawn) [NSC 671456]
Correlation (ABCB5): −0.3650

CC(=O)O[C@H]1C(=O)[C@@]2(C)[C@H]([C@H](OC(=O)c3ccco3)[C@]3(O)C[C@H](OC(=O)[C@H](O)[C@@H](NC(=O)c4ccccc4)c4ccccc4)C(C)=C1C3(C)C)[C@]1(OC(C)=O)CO[C@@H]1C[C@@H]2O [NSC 673187]
Correlation (ABCA3): −0.3896

CCCCCCOc1ccc(C(=O)NO)cc1 [NSC 692754]
Correlation (ABCD1): −0.4680
Correlation (ABCC2): −0.4016
Pearson's Correlation Coeff (ABCB1): 0.4616

CN(C)CC1CCC/C(=C\c2ccc(OC(=O)/C=C/c3ccc(Cl)c(Cl)c3)cc2)C1=O.Cl (stereo not drawn) [NSC 693443]
Correlation (ABCB5): −0.3300
Pearson's Correlation Coeff (ABCB1): 0.1842

C=C1C(=O)O[C@H]2[C@@H](O)[C@H](C)CCC/C(C)=C/CC[C@@]3(C)O[C@@H]3C[C@@H]12 [NSC 694509]
Correlation (ABCB5): −0.2924
Pearson's Correlation Coeff (ABCB1): 0.2823

CC(=O)Oc1c2ccsc2c(OC(C)=O)c2ccsc12 [NSC 695914]
Correlation (ABCC7): −0.4297
